Laboratory results from patent publication US6825230B2, “Spiro and dispiro 1,2,4-trixolane antimalarials” (Medicines for Malaria Venture MMV, priority 2002, dated 2004).
≈ marks a conversion by molar mass, not a printed value.

What was measured:
P. berghei ANKA strain [1] = assay: Divided 3x10 mg/kg vs single 1x30 mg/kg po dose in infected mice; assay type: in vivo, Plasmodium berghei; conditions: for Cures 3 × 10 mg/kg p.o. SSV: 10 mg/kg po on days 1, 2, 3; for Cures 3 × 10 mg/kg p.o. SSV / Cures 1 × 30 mg/kg p.o. SSV: cure = survival to day 30 post-infection; for Survival (days) 3 × 10 mg/kg p.o. SSV / Activity (%) 3 × 10 mg/kg p.o. SSV: 10 mg/kg po on days 1, 2, 3 post-infection; for Activity (%) 3 × 10 mg/kg p.o. SSV / Activity (%) 1 × 30 mg/kg p.o. SSV: parasitemia reduction on day 4; for Survival (days) 1 × 30 mg/kg p.o. SSV / Activity (%) 1 × 30 mg/kg p.o. SSV: single 30 mg/kg po on day 1 post-infection; for Cures 1 × 30 mg/kg p.o. SSV: single 30 mg/kg po
Method: (§1) Moro NMRI male mice (Fu Albino specific pathogen free) weighing 18±2 g were infected intravenously (i.v.) with 2×10^7 P. berghei ANKA strain-infected erythrocytes from donor mice on day 0 of the experiment. From donor mice with circa 30% parasitemia, heparinized blood was taken and diluted in physiological saline to 10^8 parasitized erythrocytes per ml. An aliquot (0.2 ml) of this suspension was injected i.v. into experimental and control groups of mice. […] Throughout the experiments, mice were kept in groups of three or five animals in Makrolon type II cages in an air-conditioned animal room at 22 to 23° C.
They were administered per os (p.o.) in a total volume of 0.01 ml per gram of mouse. The activity of the compound was determined by a variety of methods outlined in subsequent sections. Survival time was also recorded, and survival to day 30 post-infection was considered to be a cure.
The first experiment conducted consisted of administration of a divided 3×10 mg/kg p.o. dose administered on days 1, 2, and 3 post-infection vs. a single 1×30 mg/kg po dose administered on day 1 post-infection. On day 4 post-infection, blood smears of all animals were prepared and stained with Giemsa. […] Compounds were administered orally in the SSV vehicle.

[2] = system: ANKA strain of P. berghei; assay: Single dose STI in vivo screen in infected mice; design: species or system Plasmodium berghei; conditions: for Survival (days) 3 mg/kg SSV po / Activity (%) 3 mg/kg SSV po: single 3 mg/kg po in SSV; for Activity (%) 3 mg/kg SSV po / Activity (%) 10 mg/kg SSV po: percent reduction in parasitemia on day 3; for Survival (days) 10 mg/kg SSV po: single 10 mg/kg po in SSV, untreated 6-7 days; for Activity (%) 10 mg/kg SSV po: single 10 mg/kg po in standard suspending vehicle (SSV) on day 1 post-infection
P. berghei ANKA strain [3] = assay: Prophylactic activity, single 100 mg/kg po at various times before infection; assay type: in vivo, Plasmodium berghei; conditions: for Prophylactic Activity (%) 24 h: single 100 mg/kg po 24 h before infection; for Prophylactic Activity (%) 0 h: single 100 mg/kg po at 0 h
Method: as §1
Prophylactic activities of the compounds were compared after administering po single dose of 100 mg/kg to different groups of five animals at various times before infection. All groups including an untreated control group, were then infected at the same time. Parasitemia was determined for each animal on day 3 post-infection, and percent of reduction of the level of parasitemia compared to levels for animals given no drug is determined.

P. berghei ANKA strain [4] = assay: Onset of action and recrudescence experiment, single 100 mg/kg po; assay type: in vivo, Plasmodium berghei; conditions: single 100 mg/kg po (SSV) on day +3 post-infection; recrudescence = >5% parasitemia; followed up to 60 days; groups of five
Method: The onset of drug action was determined after a single fixed dose of 100 mg/kg (SSV vehicle) po to groups of five animals on day +3 post-infection (day 0).
as §1

[5] = Pharmacokinetics in rats (IV and oral dosing); conditions: in vivo, po, 25 mg/kg
From the text: Artesunate is listed as a reference compound.

[6] = system: ANKA strain of Plasmodium berghei; assay: Single dose ED50/ED90/ED99 determination in infected mice; assay type: in vivo; conditions: single dose po in SSV on day 1 post-infection; parasitemia day 3; nonlinear fitting
Method: In the single dose ED50/ED98/ED99 determinations, Moro SPF or NMRI mice (group of three) infected with the ANKA strain of Plasmodium berghei were treated on day one post-infection. […] The SSV consists of 0.5% w/v CMC, 0.5% v/v benzyl alcohol, 0.4% v/v Tween 80, and 0.9% w/v sodium chloride in water. Antimalarial activity was measured by percent reduction in parasitemia on day three post-infection. The ED50/ED90 values were calculated by nonlinear fitting.
The ED50, ED90, and ED99 values were calculated by non-linear fitting with statistical program and were expressed in mg/kg.

P. berghei ANKA strain [7] = assay: Divided 3x3 mg/kg and 3x1 mg/kg po doses in infected mice; assay type: in vivo, Plasmodium berghei; conditions: for Activity (%): percent reduction of parasitemia vs control on day 4
How it was run: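 Male NMRI mice were infected i.v. with 2×10^7 P. berghei-parasitized erythrocytes on day 0, then dosed orally in SSV vehicle on days 1, 2 and 3 post-infection.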

[8] = system: chloroquine-sensitive NF54 strain of P. falciparum; assay: In vitro antimalarial semiautomated microdilution assay ([3H]-hypoxanthine incorporation), NF54 strain; assay type: cell-based, Plasmodium falciparum; conditions: Plasmodium falciparum, NF54, 72 h, read-out: IC50 (ng/ml) NF54
How it was run: (§2)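 Logit regression analysis yields the fifty percent inhibitory concentration. Compounds are tested by semiautomated microdilution on intraerythrocytic parasites drawn from asynchronous stock cultures, measuring [3H]-hypoxanthine incorporation.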

[9] = system: chloroquine-resistant K1 strain of P. falciparum; assay: In vitro antimalarial semiautomated microdilution assay ([3H]-hypoxanthine incorporation), K1 strain; assay type: cell-based, Plasmodium falciparum; conditions: Plasmodium falciparum, K1, 72 h, read-out: IC50 (ng/ml) K1
How it was run: as §2

[10] = parasitemia reduction on day 3 post-infection
[11] = 3 × 1 mg/kg p.o. SSV on days 1, 2, 3 post-infection
[12] = 3 × 3 mg/kg p.o. SSV on days 1, 2, 3 post-infection

Structure (SMILES) | Cures 3 × 10 mg/kg p.o. SSV (P. berghei ANKA strain [1]) | Survival (days) 3 × 10 mg/kg p.o. SSV (P. berghei ANKA strain [1]) | Activity (%) 3 × 10 mg/kg p.o. SSV (P. berghei ANKA strain [1]) | Survival (days) 1 × 30 mg/kg p.o. SSV (P. berghei ANKA strain [1]) | Activity (%) 1 × 30 mg/kg p.o. SSV (P. berghei ANKA strain [1]) | Cures 1 × 30 mg/kg p.o. SSV (P. berghei ANKA strain [1]) | Survival (days) 3 mg/kg SSV po [2] | Activity (%) 3 mg/kg SSV po [2] | Survival (days) 10 mg/kg SSV po [2] | Activity (%) 10 mg/kg SSV po [2] | Prophylactic Activity (%) 24 h (P. berghei ANKA strain [3]; [10]) | Prophylactic Activity (%) 0 h (P. berghei ANKA strain [3]; [10]) | Time of Recrudescence (P. berghei ANKA strain [4]) | ED50 [6] | ED90 [6] | ED99 [6] | Survival (P. berghei ANKA strain [7]; [11]) | Activity (%) (P. berghei ANKA strain [7]; [11]) | Survival (P. berghei ANKA strain [7]; [12]) | Activity (%) (P. berghei ANKA strain [7]; [12]) | also measured
C[C@H]1[C@H](OC(=O)CCC(=O)O)O[C@@H]2O[C@@]3(C)CC[C@H]4[C@H](C)CC[C@@H]1[C@@]24OO3 [AS, artesunate, reference compound] | 0/5 | 11 days | 98.62% | 9 days | 83.83% | 0/5 | 8.0 days | 66% | 7.0 days | 87% | 6.28% | 92.44% | 8.6 days | 4.7 mg/kg | 19 mg/kg | 60 mg/kg | 6.8 days | 39% | 9.4 days | 78% | Rat Oral Bioavailability 25 mg/kg (DHA) [5]: 21%
CCN(CC)CCCC(C)Nc1ccnc2cc(Cl)ccc12 (stereo not shown) [CQ, chloroquine, reference compound] | 0/5 | 14.3 days |  | 9.5 days |  | 0/5 | 8.0 days |  | 9.0 days |  |  |  | 17.8 days |  |  | 5.9 mg/kg | 7.2 days |  | 10 days |  | IC50 [8]: 4.4 ng/mL (≈ 0.0138 µM); IC50 [9]: 76 ng/mL (≈ 0.238 µM)
OC(c1cc(C(F)(F)F)nc2c(C(F)(F)F)cccc12)C1CCCCN1 (stereo not shown) [MFQ, mefloquine, reference compound] | 0/5 | 23.3 days | 99.92% | 20.3 days | 99.94% | 0/5 |  | 9% | 17 days | 99.11% | 100% | 100% | 28.0 days | 4.0 mg/kg | 5.4 mg/kg | 6.8 mg/kg | 6.2 days | 2% | 12 days | 98% | Duration of prophylactic protection (P. berghei ANKA strain [3]; single 100 mg/kg po): 3 days; Prophylactic Activity (%) 48 h (P. berghei ANKA strain [3]; single 100 mg/kg po 48 h before infection, parasitemia reduction on day 3 post-infection): 99.92%; Prophylactic Activity (%) 72 h (P. berghei ANKA strain [3]; single 100 mg/kg po 72 h before infection, parasitemia reduction on day 3 post-infection): 99.97%
